Experimental data: patent US12473324B2, “Triazine-based amphiphilic compound and use thereof” (INDUSTRY-UNIVERSITY COOPERATION FOUNDATION HANYANG …, priority 2019, dated 2025)

What was measured:
[1] = Critical micelle concentration (CMC) by fluorescent dye diphenylhexatriene (DPH); assay type: physicochemical; conditions: DPH fluorescence
Description: A method of measuring the CMC is not particularly limited, but a method widely known in the art may be used, and for example, the CMC may be measured by a fluorescent staining method using diphenylhexatriene (DPH).
(§1) Specifically, the critical micelle concentrations (CMCs) were measured using a fluorescent dye, diphenylhexatriene (DPH), and the hydrodynamic radii (Rh) of micelles formed by each preparation (1.0 wt %) were determined by a dynamic light scattering (DLS) experiment. The measured results are shown in Table 1 compared to DDM which is an existing amphiphilic molecule (detergent).

[2] = Hydrodynamic radius (Rh) of micelles by dynamic light scattering (DLS); assay type: physicochemical; conditions: 1.0 wt % detergent
Description: A method of measuring the radius of micelle is not particularly limited, but a method widely known in the art may be used, and for example, the radius of micelle may be measured using a dynamic light scattering (DLS) experiment.
as §1

[3] = Solubility of detergent (Table 1); assay type: physicochemical
[4] = target: human β2 adrenergic receptor (β2AR) (Homo sapiens, UniProt P07550); test: β2AR stability: [3H]-dihydroalprenolol (DHA) ligand binding assay; conditions: CMC+0.2 wt %, room temperature, 6 days, [3H]-DHA
Description: Experiments were performed to measure the structural stability of the human β2 adrenergic receptor (β2AR) and G-protein-coupled receptor (GPCR) by TSMs, TTGs and TEMs. That is, a receptor purified by DDM was subjected to amphiphilic molecular exchange when diluted with a buffer solution containing only each of TSMs, TTGs and TEMs without cholesteryl hemisuccinate (CHS) or a buffer solution containing CHS and DDM. The final concentration of the amphiphilic molecule was CMC+0.2 wt %, and the ligand binding properties of the receptor were measured by binding of [^3H]-dihydroalprenolol ([^3H]-DHA). Specifically, the following method was used for a radioligand binding test. β2AR was purified using 0.1% DDM (D. M. Rosenbaum et al., Science, 2007, 318, 1266-1273.) and finally concentrated to about 10 mg/ml (about 200 μM). A master binding mixture containing 10 nM [^3H]-dihydroalprenolol (DHA) supplemented with 0.5 mg/ml BSA in 0.2% amphiphilic compounds (DDM, TSMs, TTGs or TEMs) was prepared using β2AR purified with DDM. Receptors purified with DDM, TSMs, TTGs or TEMs were incubated with 10 nM [^3H]-DHA at room temperature for 6 days. The mixture was loaded onto a G-50 column and a flow through was collected with 1 ml of a binding buffer (20 mM HEPES supplemented with 0.5 mg/ml BSA and 20×CMC each amphiphilic compound, pH 7.5, 100 mM NaCl), and filled with 15 ml of a scintillation fluid. Receptor-bound [^3H]-DHA was measured by a scintillation counter (Beckman). The binding of [^3H]-DHA is shown as a column graph.

Sequence of human β2 adrenergic receptor (β2AR) (P07550 whole entry): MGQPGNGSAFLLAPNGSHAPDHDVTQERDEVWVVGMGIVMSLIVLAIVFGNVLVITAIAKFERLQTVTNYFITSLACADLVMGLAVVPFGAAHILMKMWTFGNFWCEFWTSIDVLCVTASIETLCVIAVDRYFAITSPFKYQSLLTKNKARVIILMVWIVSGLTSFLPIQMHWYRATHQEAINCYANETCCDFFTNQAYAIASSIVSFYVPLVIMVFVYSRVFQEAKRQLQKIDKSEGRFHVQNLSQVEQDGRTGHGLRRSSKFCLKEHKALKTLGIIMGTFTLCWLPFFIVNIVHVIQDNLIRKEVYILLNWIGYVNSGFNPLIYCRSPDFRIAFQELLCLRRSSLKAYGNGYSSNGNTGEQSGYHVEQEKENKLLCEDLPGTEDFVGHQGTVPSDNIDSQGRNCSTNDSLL

CMC [1]	Rh (nm) [2]	solubility [3]	Compound	β2AR long-term ligand binding retention [4]
~0.002 mM	56.2 ± 9.9 nm	~1%	CCCCCCCCCCCOc1nc(NC(CO[C@@H]2O[C@H](CO)[C@@H](O[C@H]3O[C@H](CO)[C@@H](O)[C@H](O)[C@H]3O)[C@H](O)[C@H]2O)CO[C@@H]2O[C@H](CO)[C@@H](O[C@H]3O[C@H](CO)[C@@H](O)[C@H](O)[C@H]3O)[C@H](O)[C@H]2O)nc(OCCCCCCCCCCC)n1 [TSM-E11]	better in maintaining the ligand binding ability of the receptor than DDM
~0.01 mM	3.6 ± 0.1 nm	~10%	CCCCCCCSc1nc(NC(CO[C@@H]2O[C@H](CO)[C@@H](O[C@H]3O[C@H](CO)[C@@H](O)[C@H](O)[C@H]3O)[C@H](O)[C@H]2O)CO[C@@H]2O[C@H](CO)[C@@H](O[C@H]3O[C@H](CO)[C@@H](O)[C@H](O)[C@H]3O)[C@H](O)[C@H]2O)nc(SCCCCCCC)n1 [TSM-T7]	better in maintaining the ligand binding ability of the receptor than DDM
~0.006 mM	4.2 ± 0.0 nm	~10%	CCCCCCCCSc1nc(NC(CO[C@@H]2O[C@H](CO)[C@@H](O[C@H]3O[C@H](CO)[C@@H](O)[C@H](O)[C@H]3O)[C@H](O)[C@H]2O)CO[C@@H]2O[C@H](CO)[C@@H](O[C@H]3O[C@H](CO)[C@@H](O)[C@H](O)[C@H]3O)[C@H](O)[C@H]2O)nc(SCCCCCCCC)n1 [TSM-T8]	better in maintaining the ligand binding ability of the receptor than DDM

Compound	CMC [1]	Rh (nm) [2]	solubility [3]	β2AR long-term ligand binding retention [4]
CCCCCCCCCSc1nc(NC(CO[C@@H]2O[C@H](CO)[C@@H](O)[C@H](O)[C@H]2O)(CO[C@@H]2O[C@H](CO)[C@@H](O)[C@H](O)[C@H]2O)CO[C@@H]2O[C@H](CO)[C@@H](O)[C@H](O)[C@H]2O)nc(SCCCCCCCCC)n1 [TTG-T9]	~0.010 mM	3.3 ± 0.11 nm	~10%	better in maintaining the ligand binding ability of the receptor than DDM
